Patent US9981975B2, “Pyrrolotriazine compounds as tam inhibitors” (Incyte Corporation, priority 2016, dated 2018)

How the values were obtained:
Format in all cases: biochemical
phosphor-Axl = phosphor-Axl (Homo sapiens (Human), UniProt P30530); assay: TAM Enzymatic Assay (HTRF), Axl; conditions: recombinant autophosphorylated Axl, 60 min, room temperature
c-Mer = c-Mer (Homo sapiens (Human), UniProt Q12866); assay: TAM Enzymatic Assay (HTRF), Mer; conditions: 60 min, room temperature
Protocol: The kinase assay buffer contained 50 mM HEPES, pH7.5, 10 mM MgCl2, 1 mM EGTA, 0.01% NP-40 and 2 mM DTT. 0.1 ul test compounds dissolved in DMSO were transferred from compound plates to white 384-well assay plates (Greiner […] plates). […] 4 ul enzyme solution (or assay buffer for the enzyme blank) was added to the appropriate wells in each plate, and then 4 ul/well substrate solution was added to initiate the reaction. The plate was protected from light and incubated at room temperature for 60 min. […] The plate was incubated for 1 h at room temperature, and HTRF (homogenous time resolved fluorescence) signal was measured on a PHERAstar FS plate reader (BMG labtech). Percentage of inhibition was calculated for each concentration and IC50 value was generated from curve fitting with GraphPad Prism software.

Tyro3 = Tyro3 (Homo sapiens (Human), UniProt Q06418); assay: TAM Enzymatic Assay (HTRF), Tyro3; conditions: Tyro3, 60 min, room temperature
Chain of Tyro3 (Q06418 41-890): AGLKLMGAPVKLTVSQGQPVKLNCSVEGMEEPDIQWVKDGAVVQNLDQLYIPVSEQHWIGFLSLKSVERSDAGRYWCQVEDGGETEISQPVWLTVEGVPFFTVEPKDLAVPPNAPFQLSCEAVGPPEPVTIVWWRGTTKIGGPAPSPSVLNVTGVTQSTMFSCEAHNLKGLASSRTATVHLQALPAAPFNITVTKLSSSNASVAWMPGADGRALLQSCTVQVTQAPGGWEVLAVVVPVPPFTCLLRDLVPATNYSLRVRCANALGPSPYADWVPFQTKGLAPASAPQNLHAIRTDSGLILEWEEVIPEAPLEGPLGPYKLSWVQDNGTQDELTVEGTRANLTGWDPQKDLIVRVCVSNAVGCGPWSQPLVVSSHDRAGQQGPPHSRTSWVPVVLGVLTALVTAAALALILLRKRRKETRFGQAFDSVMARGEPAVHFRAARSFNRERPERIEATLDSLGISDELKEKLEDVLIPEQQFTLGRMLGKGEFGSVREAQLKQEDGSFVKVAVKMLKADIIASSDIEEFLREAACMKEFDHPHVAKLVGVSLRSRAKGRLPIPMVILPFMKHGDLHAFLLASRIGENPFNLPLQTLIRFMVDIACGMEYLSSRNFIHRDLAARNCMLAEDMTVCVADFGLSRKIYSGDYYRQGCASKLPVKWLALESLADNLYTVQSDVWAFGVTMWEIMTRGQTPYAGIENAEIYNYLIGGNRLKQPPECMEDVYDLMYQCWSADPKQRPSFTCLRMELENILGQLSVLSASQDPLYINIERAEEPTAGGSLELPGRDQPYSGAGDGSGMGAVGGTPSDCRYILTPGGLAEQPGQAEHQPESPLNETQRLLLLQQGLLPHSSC
Summary of the method: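 Reactions ran 60 min at room temperature, protected from light, started by substrate addition to enzyme plus DMSO compound, in pH 7.5 HEPES buffer with 10 mM MgCl2, 1 mM EGTA, 0.01% NP-40, 2 mM DTT.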

Chain of c-Mer (Q12866 21-999): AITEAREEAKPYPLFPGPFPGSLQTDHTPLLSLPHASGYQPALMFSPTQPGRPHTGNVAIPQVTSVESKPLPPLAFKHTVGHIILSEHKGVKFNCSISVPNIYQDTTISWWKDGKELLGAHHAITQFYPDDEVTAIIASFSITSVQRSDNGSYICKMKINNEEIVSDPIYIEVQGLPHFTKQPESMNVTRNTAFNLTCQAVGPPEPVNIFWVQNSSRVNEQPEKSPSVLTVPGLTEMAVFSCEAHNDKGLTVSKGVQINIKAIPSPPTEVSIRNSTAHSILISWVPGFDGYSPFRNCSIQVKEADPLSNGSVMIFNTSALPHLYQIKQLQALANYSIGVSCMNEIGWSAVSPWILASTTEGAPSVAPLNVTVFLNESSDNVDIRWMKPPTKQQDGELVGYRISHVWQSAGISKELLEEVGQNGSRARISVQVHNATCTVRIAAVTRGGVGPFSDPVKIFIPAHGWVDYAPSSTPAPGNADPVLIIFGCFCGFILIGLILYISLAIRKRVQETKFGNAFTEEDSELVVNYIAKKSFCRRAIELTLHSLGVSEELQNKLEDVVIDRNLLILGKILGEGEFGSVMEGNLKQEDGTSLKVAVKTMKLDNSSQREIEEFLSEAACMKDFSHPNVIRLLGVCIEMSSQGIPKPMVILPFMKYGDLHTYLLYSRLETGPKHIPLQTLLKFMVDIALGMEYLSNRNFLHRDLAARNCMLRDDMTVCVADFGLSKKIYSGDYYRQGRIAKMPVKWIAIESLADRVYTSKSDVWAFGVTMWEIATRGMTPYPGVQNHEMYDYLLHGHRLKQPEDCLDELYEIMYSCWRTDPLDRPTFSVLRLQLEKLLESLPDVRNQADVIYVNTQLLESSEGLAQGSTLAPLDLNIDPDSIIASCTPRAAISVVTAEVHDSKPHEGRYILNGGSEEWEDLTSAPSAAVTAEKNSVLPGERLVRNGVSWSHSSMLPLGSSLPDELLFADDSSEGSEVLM
Chain of phosphor-Axl (P30530 26-894): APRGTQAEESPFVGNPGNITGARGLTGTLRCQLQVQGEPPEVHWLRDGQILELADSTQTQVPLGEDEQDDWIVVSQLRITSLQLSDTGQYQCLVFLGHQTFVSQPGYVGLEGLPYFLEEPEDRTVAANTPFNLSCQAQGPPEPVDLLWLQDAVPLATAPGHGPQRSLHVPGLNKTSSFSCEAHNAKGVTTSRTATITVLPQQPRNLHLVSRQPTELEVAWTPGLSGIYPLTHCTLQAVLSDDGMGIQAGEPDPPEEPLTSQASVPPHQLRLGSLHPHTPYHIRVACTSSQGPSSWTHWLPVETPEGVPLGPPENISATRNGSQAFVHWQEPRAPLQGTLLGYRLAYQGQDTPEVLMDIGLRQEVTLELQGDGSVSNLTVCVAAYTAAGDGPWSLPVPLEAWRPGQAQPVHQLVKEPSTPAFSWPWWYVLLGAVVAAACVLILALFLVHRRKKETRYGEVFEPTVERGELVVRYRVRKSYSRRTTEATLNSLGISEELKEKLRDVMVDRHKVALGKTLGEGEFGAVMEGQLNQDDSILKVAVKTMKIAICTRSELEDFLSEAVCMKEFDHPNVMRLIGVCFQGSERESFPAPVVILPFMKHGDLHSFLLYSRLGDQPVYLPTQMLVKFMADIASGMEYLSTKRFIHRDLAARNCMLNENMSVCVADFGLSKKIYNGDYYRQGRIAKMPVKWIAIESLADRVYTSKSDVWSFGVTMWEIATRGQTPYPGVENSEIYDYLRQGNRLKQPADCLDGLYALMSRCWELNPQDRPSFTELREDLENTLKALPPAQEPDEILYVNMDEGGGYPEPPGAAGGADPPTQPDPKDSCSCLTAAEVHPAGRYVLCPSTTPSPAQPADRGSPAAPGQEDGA

| IC50 (phosphor-Axl) [nM] | IC50 (c-Mer) [nM] | IC50 (Tyro3) [nM] | SMILES |
| --- | --- | --- | --- |
| ≤ 5 | ≤ 5 | > 100 | CN(C)C(=O)N1CCC(c2cc(-c3ccc(NC(=O)c4cccn(-c5ccccc5)c4=O)cc3)c3c(N)ncnn23)CC1 [Example 44, N-[4-(4-Amino-7-{1-[(dimethylamino)carbonyl]piperidin-4-yl}pyrrolo[2,1-f][1,2,4]triazin-5-yl)phenyl]-2-oxo-1-phenyl-1,2-dihydropyridine-3-carboxamide] |
| ≤ 5 | ≤ 5 | 10 to 100 | CN(C)C(=O)N1CCC(c2cc(-c3ccc(NC(=O)c4cccn(-c5ccc(F)cc5)c4=O)cc3)c3c(N)ncnn23)CC1 [Example 45, N-[4-(4-Amino-7-{1-[(dimethylamino)carbonyl]piperidin-4-yl}pyrrolo[2,1-f][1,2,4]triazin-5-yl)phenyl]-1-(4-fluorophenyl)-2-oxo-1,2-dihydropyridine-3-carboxamide] |
| ≤ 5 | ≤ 5 | 10 to 100 | CN(C)C(=O)N1CCC(c2cc(-c3ccc(NC(=O)c4cccn(-c5ccccc5)c4=O)cc3F)c3c(N)ncnn23)CC1 [Example 46, N-[4-(4-Amino-7-{1-[(dimethylamino)carbonyl]piperidin-4-yl}pyrrolo[2,1-f][1,2,4]triazin-5-yl)-3-fluorophenyl]-2-oxo-1-phenyl-1,2-dihydropyridine-3-carboxamide] |
| ≤ 5 | ≤ 5 | 10 to 100 | CN(C)C(=O)N1CCC(c2cc(-c3ccc(NC(=O)c4cccn(-c5ccc(F)cc5)c4=O)cc3F)c3c(N)ncnn23)CC1 [Example 47, N-[4-(4-Amino-7-{1-[(dimethylamino)carbonyl]piperidin-4-yl}pyrrolo[2,1-f][1,2,4]triazin-5-yl)-3-fluorophenyl]-1-(4-fluorophenyl)-2-oxo-1,2-dihydropyridine-3-carboxamide] |
| ≤ 5 | ≤ 5 | 10 to 100 | COCCN1CCC(c2cc(-c3ccc(NC(=O)c4cccn(-c5ccc(F)cc5)c4=O)cc3)c3c(N)ncnn23)CC1 [Example 49, N-(4-{4-Amino-7-[1-(2-methoxyethyl)piperidin-4-yl]pyrrolo[2,1-f][1,2,4]triazin-5-yl}phenyl)-1-(4-fluorophenyl)-2-oxo-1,2-dihydropyridine-3-carboxamide] |
| ≤ 5 | ≤ 5 | 10 to 100 | COCCN1CCC(c2cc(-c3ccc(NC(=O)c4cccn(-c5ccccc5)c4=O)cc3F)c3c(N)ncnn23)CC1 [Example 50, N-(4-{4-Amino-7-[1-(2-methoxyethyl)piperidin-4-yl]pyrrolo[2,1-f][1,2,4]triazin-5-yl}-3-fluorophenyl)-2-oxo-1-phenyl-1,2-dihydropyridine-3-carboxamide] |
| ≤ 5 | ≤ 5 | 5 to 10 | COCCN1CCC(c2cc(-c3ccc(NC(=O)c4cccn(-c5ccc(F)cc5)c4=O)cc3F)c3c(N)ncnn23)CC1 [Example 51, N-(4-{4-Amino-7-[1-(2-methoxyethyl)piperidin-4-yl]pyrrolo[2,1-f][1,2,4]triazin-5-yl}-3-fluorophenyl)-1-(4-fluorophenyl)-2-oxo-1,2-dihydropyridine-3-carboxamide] |
| ≤ 5 | ≤ 5 | 10 to 100 | Nc1ncnn2c(C3CCN(CCO)CC3)cc(-c3ccc(NC(=O)c4cccn(-c5ccccc5)c4=O)cc3)c12 [Example 52, N-(4-{4-Amino-7-[1-(2-hydroxyethyl)piperidin-4-yl]pyrrolo[2,1-f][1,2,4]triazin-5-yl}phenyl)-2-oxo-1-phenyl-1,2-dihydropyridine-3-carboxamide] |
| ≤ 5 | ≤ 5 | 10 to 100 | Nc1ncnn2c(C3CCN(CCO)CC3)cc(-c3ccc(NC(=O)c4cccn(-c5ccccc5)c4=O)cc3F)c12 [Example 54] |
| ≤ 5 | ≤ 5 | 5 to 10 | Nc1ncnn2c(C3CCN(CCO)CC3)cc(-c3ccc(NC(=O)c4cccn(-c5ccc(F)cc5)c4=O)cc3F)c12 [Example 55] |
| ≤ 5 | ≤ 5 | 10 to 100 | CC(C)n1cc(C(=O)Nc2ccc(-c3cc(C4CCN(C(=O)N(C)C)CC4)n4ncnc(N)c34)cc2)c(=O)n(-c2ccccc2)c1=O [Example 61, N-(4-(4-Amino-7-(1-(dimethylcarbamoyl)piperidin-4-yl)pyrrolo[1,2-f][1,2,4]triazin-5-yl)phenyl)-1-isopropyl-2,4-dioxo-3-phenyl-1,2,3,4-tetrahydropyrimidine-5-carboxamide] |
| ≤ 5 | ≤ 5 | 10 to 100 | CCN(C)C(=O)N1CCC(c2cc(-c3ccc(NC(=O)c4cn(C(C)C)c(=O)n(-c5ccccc5)c4=O)cc3)c3c(N)ncnn23)CC1 [Example 62, N-(4-(4-Amino-7-(1-(ethyl(methyl)carbamoyl)piperidin-4-yl)pyrrolo[1,2-f][1,2,4]triazin-5-yl)phenyl)-1-isopropyl-2,4-dioxo-3-phenyl-1,2,3,4-tetrahydropyrimidine-5-carboxamide] |
| ≤ 5 | ≤ 5 | 10 to 100 | CC(C)C(=O)N1CCC(c2cc(-c3ccc(NC(=O)c4cn(C(C)C)c(=O)n(-c5ccccc5)c4=O)cc3)c3c(N)ncnn23)CC1 [Example 63, N-(4-(4-Amino-7-(1-isobutyrylpiperidin-4-yl)pyrrolo[1,2-f][1,2,4]triazin-5-yl)phenyl)-1-isopropyl-2,4-dioxo-3-phenyl-1,2,3,4-tetrahydropyrimidine-5-carboxamide] |
| ≤ 5 | ≤ 5 | 10 to 100 | CC(C)n1cc(C(=O)Nc2ccc(-c3cc(C4CCN(C)CC4)n4ncnc(N)c34)cc2)c(=O)n(-c2ccccc2)c1=O [Example 64, N-(4-(4-Amino-7-(1-methylpiperidin-4-yl)pyrrolo[1,2-f][1,2,4]triazin-5-yl)phenyl)-1-isopropyl-2,4-dioxo-3-phenyl-1,2,3,4-tetrahydropyrimidine-5-carboxamide] |
| ≤ 5 | ≤ 5 | 10 to 100 | CC(C)n1cc(C(=O)Nc2ccc(-c3cc(C4CCN(C(=O)N(C)C)CC4)n4ncnc(N)c34)cc2)c(=O)n(-c2ccc(F)cc2)c1=O [Example 65, N-(4-(4-Amino-7-(1-(dimethylcarbamoyl)piperidin-4-yl)pyrrolo[1,2-f][1,2,4]triazin-5-yl)phenyl)-3-(4-fluorophenyl)-1-isopropyl-2,4-dioxo-1,2,3,4-tetrahydropyrimidine-5-carboxamide] |
| ≤ 5 | ≤ 5 | > 100 | CCn1cc(C(=O)Nc2ccc(-c3cc(C4CCN(C(=O)N(C)C)CC4)n4ncnc(N)c34)cc2)c(=O)n(-c2ccc(F)cc2)c1=O [Example 67, N-(4-(4-Amino-7-(1-(dimethylcarbamoyl)piperidin-4-yl)pyrrolo[1,2-f][1,2,4]triazin-5-yl)phenyl)-1-ethyl-3-(4-fluorophenyl)-2,4-dioxo-1,2,3,4-tetrahydropyrimidine-5-carboxamide] |
| ≤ 5 | ≤ 5 | > 100 | CCn1cc(C(=O)Nc2ccc(-c3cc(C4CCN(C(=O)N5CCOCC5)CC4)n4ncnc(N)c34)cc2)c(=O)n(-c2ccc(F)cc2)c1=O [Example 68, N-(4-(4-Amino-7-(1-(morpholine-4-carbonyl)piperidin-4-yl)pyrrolo[1,2-f][1,2,4]triazin-5-yl)phenyl)-1-ethyl-3-(4-fluorophenyl)-2,4-dioxo-1,2,3,4-tetrahydropyrimidine-5-carboxamide] |
